# Source: US20040171680A1, “Treating Syndrome X with substituted tetralins and indanes” (priority 2002, published 2004)
# Where two headings read alike, the source gives them in different places.
# Legend:
# [1] = target: T1, PPARα (Rattus norvegicus, UniProt P37230); assay: HD bDNA Assay (HD gene induction); type: cell-based; conditions: in section F; target not named there, values match the PPARα column; read-out: EC50
# T1 construct: H4IIE rat hepatoma cell line was obtained from ATCC; host or cells: H4IIE rat hepatoma cells
# T1 sequence (P37230 1-468): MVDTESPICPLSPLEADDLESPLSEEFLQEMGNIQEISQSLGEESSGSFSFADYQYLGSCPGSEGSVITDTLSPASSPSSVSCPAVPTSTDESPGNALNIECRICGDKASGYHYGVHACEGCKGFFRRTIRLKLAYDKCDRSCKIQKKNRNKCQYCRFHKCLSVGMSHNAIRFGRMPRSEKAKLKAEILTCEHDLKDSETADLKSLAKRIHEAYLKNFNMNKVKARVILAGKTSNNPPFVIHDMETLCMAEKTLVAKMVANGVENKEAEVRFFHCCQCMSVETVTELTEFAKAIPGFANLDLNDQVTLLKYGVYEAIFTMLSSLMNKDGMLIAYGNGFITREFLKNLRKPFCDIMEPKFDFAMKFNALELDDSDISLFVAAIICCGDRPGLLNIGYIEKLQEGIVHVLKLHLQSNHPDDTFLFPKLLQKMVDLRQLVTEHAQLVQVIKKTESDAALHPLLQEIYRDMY
# Experimental: HD bDNA Assay H4IIE rat hepatoma cell line was obtained from ATCC. Cells were cultured in 175 cm^2 tissue culture flask or seeded in 96-well plate with (high serum content, 10% fetal bovine serum and 10% calf serum) culture medium and maintained at 37° C. and 5% CO2 throughout study. Twenty-four hours after the initial seeding of the 96-well plate by hand (approximate 100,000/well), the HD gene induction assay was initiated. Media was removed and replaced with 100 ul of low serum culture media (5% charcoal/dextran treated calf serum) containing vehicle (DMSO) or test compounds or standard. Cells returned to incubator for 24 hours culture. At the termination of the challenge, 50 ul lysis buffer with HD gene specific CE, LE, BL probes was added directly into each well to initiate the bDNA HD mRNA assay. The branched DNA assay was performed according to the manufacturer's protocol (Bayer Diagnostics; Emeryville. Calif.). At the end of the assay, the luminescence was quantitated in Dynex MLX microtiter plate luminometer. EC50's were determined by non-linear regression with a sigmoidal fit utilizing Graphpad Prism.
# [2] = target: T2, PPARγ (Homo sapiens, UniProt P37231); assay: aP2 Assay for PPAR gamma Agonists (bDNA aP2 mRNA in preadipocytes); type: cell-based; conditions: for PPARγ FI: fold induction, PPARγ standard: FI = 70.3; for EC50: values in square brackets
# T2 construct: Following the challenge of the preadipocytes, cells may be lysed with lysis buffer; endogenous in cells; host or cells: preadipocytes
# T2 sequence (P37231 1-505): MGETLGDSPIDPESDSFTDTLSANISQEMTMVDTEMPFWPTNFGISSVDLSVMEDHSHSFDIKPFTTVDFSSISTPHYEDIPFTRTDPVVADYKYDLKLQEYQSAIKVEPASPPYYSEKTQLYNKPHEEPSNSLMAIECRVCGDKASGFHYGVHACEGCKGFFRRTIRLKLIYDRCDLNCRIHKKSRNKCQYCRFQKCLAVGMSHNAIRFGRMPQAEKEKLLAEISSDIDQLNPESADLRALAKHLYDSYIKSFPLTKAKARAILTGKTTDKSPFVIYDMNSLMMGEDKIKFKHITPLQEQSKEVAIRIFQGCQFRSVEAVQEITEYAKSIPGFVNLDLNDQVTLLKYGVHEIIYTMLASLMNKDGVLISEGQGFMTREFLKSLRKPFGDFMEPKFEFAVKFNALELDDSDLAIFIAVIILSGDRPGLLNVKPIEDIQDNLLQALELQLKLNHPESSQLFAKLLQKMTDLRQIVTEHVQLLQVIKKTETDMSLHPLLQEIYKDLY
# Source text: aP2 Assay for PPAR gamma Agonists
# The procedure is described in detail in Burris et al., Molecular Endocrinology, 1999, 13:410, which is hereby incorporated by reference in its entirety, and aP2 assay results of agonist intrinsic activity may be presented as fold increase over vehicle in induction of aP2 mRNA production.
# Twenty-four hours after the initial seeding of the 96-well plates by hand (around 20,000/well), the differentiation assay may be initiated. Medium may be removed and replaced with […] of differentiation medium containing vehicle (DMSO) or test compounds. Cells may be returned to incubator for 24 hours culture. At the termination of the challenge, medium may be removed and 100 ul of lysis buffer may be added to initiate the bDNA aP2 mRNA assay. The branched DNA assay may be performed according to the manufacturer's protocol (Bayer Diagnostics; Emeryville, Calif.). Result may be expressed as the fold increase of aP2 mRNA production activated over vehicle controls. EC50's and Emax may be determined by non-linear regression with a sigmoidal fit curve.
# Following the challenge of the preadipocytes, cells may be lysed with lysis buffer (Bayer Diagnostics) containing the aP2 oligonucleotides. After a 15 minute incubation at 53° C. or 30 minutes at 37° C. incubator, 70 ul of the lysis buffer from each well may be added to a corresponding capture well (preincubated with 70 ul of blocking buffer (Bayer Diagnostics)). The capture plate may be incubated overnight at 53° C. in a plate incubator (Bayer Diagnostics). After this incubation, the bDNA and labeled probes may be annealed as directed by the manufacturer. Following a 30-minute incubation with the luminescent alkaline phosphatase substrate, dioxitane, the luminescence may be quantitated in a Dynex MLX microtiter plate luminometer. Oligonucleotide probes designed to anneal to the aP2 mRNA and function in the bDNA mRNA detection system are designed with ProbeDesigner software (Bayer Diagnostics). This software package analyzes a target sequence of interest with a series of algorithms in order to determine which regions of the sequence can perform as locations for capture, label, or spacer probe annealing. The sequences of the oligonucleotides are as follows: […]
# [3] = test system: db/db mice; assay: Oral dosing in female db/db mice; type: in vivo; conditions: Mus musculus, 120 h, 1.0 mpk, 5 day oral dosing, % change compared to vehicle
# Experimental: The compound was prepared as suspensions in 0.5% hydroxypropylmethylcellulose (Dow Chemical, Midland, Mich.). The dosing volume was 10 mL/kg of body weight. […] Body weight was measured in the mornings on Day 1, prior to dosing, and on Day 12 before bleeding. 18-24 hours after the final dose for each group, the mice were anesthetized with CO2/O2 (70:30) and bled by retro-orbital sinus puncture into micro-tubes containing clog activator and then put in ice. The serum samples were prepared by centrifugation. Serum glucose and triglycerides were determined by using COBAS Mira Plus blood chemistry analyzer (Roche Diagnostics, N.J.). Serum insulin was measured by using ALPCO insulin ELISA kit.
# Statistical analysis was performed using the program Prism (Graphpad, Monrovia, Calif.) and performing one-way ANOVA with a Dunnet's multiple comparison test.
# [4] = target: T3, PPARδ (Homo sapiens, UniProt Q03181); assay: Transfection Assay for PPARδ Receptors (PPAR-Gal4 / Gal4-Luciferase reporter in HEK293 cells); type: cell-based; conditions: for EC50: values in square brackets
# T3 construct: a Gal4-Luciferase reporter is co-transfected
# T3 sequence (Q03181 171-441 limits assumed): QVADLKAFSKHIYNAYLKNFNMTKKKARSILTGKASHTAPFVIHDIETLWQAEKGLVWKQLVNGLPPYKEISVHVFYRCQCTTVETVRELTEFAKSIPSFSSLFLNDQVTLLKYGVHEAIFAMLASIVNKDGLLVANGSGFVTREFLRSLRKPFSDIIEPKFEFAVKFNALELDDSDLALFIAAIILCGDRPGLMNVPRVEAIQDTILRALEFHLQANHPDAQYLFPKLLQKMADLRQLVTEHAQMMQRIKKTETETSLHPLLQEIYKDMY
# Experimental: Transfection Assay for PPARδ Receptors
# HEK293 cells were grown in DMEM/F-12 Media supplemented with 10% FBS and glutamine (GIBCOBRL). The cells were co-transfected with DNA for PPAR-Gal4 receptor and Gal4-Luciferase Reporter using the DMRIE-C Reagent. On the following day, the DNA-containing medium were replaced with 5% Charcoal treated FBS growth medium. After six hours, cells were seeded in 96 well plate and incubated at 37° C. in CO2 incubator overnight. Cells were challenged by test compounds and incubated for 24 hours at 37° C. in 5% CO2 incubator. Luciferase activity was assayed using the Steady-Glo Luciferase Assay Kit from Promega. DMRIE-C Reagent was purchased from GIBCO Cat. No.10459-014. OPTI-MEM I Reduced Serum Medium was purchased from GIBCO Cat. No. 31985. Steady-Glo Luciferase Assay Kit was obtained from Promega Part# E254B.
EC50 [1] [nM],PPARγ FI [2],Compound,EC50 [4] [nM],also measured
160,0.43,"CCCCN(C(=O)Nc1ccc(SC(F)(F)F)cc1)C1Cc2ccc(SC(C)(C)C(=O)O)cc2C1 (stereo not shown) [Example 17, 2-Methyl-2-{2-[1-butyl-3-(4-trifluoromethylsulfanylphenyl)ureido]indan-5-ylsulfanyl}propionic acid]",–,–
37,3.7,"CCN(C(=O)Nc1ccc(SC(F)(F)F)cc1)C1Cc2ccc(SC(C)(C)C(=O)O)cc2C1 (stereo not shown) [Example 4, 2-{2-[1-Ethyl-3-(4-trifluoromethylsulfanylphenyl)ureido]indan-5-ylsulfanyl}-2-methylpropionic acid]",–,change in vivo at 1 mg/kg ([3]; read-out: Δ BW): -11%; change in vivo at 1 mg/kg ([3]; read-out: Δ Plasma Glucose): -49%; change in vivo at 1 mg/kg ([3]; read-out: Δ Plasma Insulin): -13%; change in vivo at 1 mg/kg ([3]; read-out: Δ Plasma TG): -47%
135,0.31,"CC(C)(Sc1ccc2c(c1)CC(NC(=O)Nc1ccc(OC(F)(F)F)cc1)C2)C(=O)O (stereo not shown) [Example 18, 2-Methyl-2-{2-[3-(4-trifluoromethoxyphenyl)ureido]indan-5-ylsulfanyl}propionic acid]",–,–
158,0.37,"CCCN(C(=O)Nc1ccc(OC(F)(F)F)cc1)C1Cc2ccc(SC(C)(C)C(=O)O)cc2C1 (stereo not shown) [Example 16, 2-Methyl-2-{2-[1-propyl-3-(4-trifluoromethoxyphenyl)ureido]indan-5-ylsulfanyl}propionic acid]",–,–
184,1.2,CCCCCCN(C(=O)Nc1ccc(C(C)C)cc1)C1Cc2ccc(SC(C)(C)C(=O)O)cc2C1 (stereo not shown) [Example 13],–,–
106,0.44,"CC(C)CCN(C(=O)Nc1ccc(OC(F)(F)F)cc1)C1Cc2ccc(SC(C)(C)C(=O)O)cc2C1 (stereo not shown) [Example 20, 2-Methyl-2-{2-[1-(3-methylbutyl)-3-(4-trifluoromethoxyphenyl)ureido]indan-5-ylsulfanyl}-2-methylpropionic acid]",–,–
106,0.05,"CC(C)CCN(C(=O)Nc1ccc(C(C)C)cc1)C1Cc2ccc(SC(C)(C)C(=O)O)cc2C1 (stereo not shown) [Example 21, 2-{2-[3-(4-Isopropylphenyl)-1-(3-methylbutyl)ureido]indan-5-ylsulfanyl}-2-methylpropionic acid]",–,–
213,0.3,"CCCCCCN(C(=O)Nc1ccc(OC(F)(F)F)cc1)C1Cc2ccc(SC(C)(C)C(=O)O)cc2C1 (stereo not shown) [Example 14, 2-Methyl-2-{2-[1-hexyl-3-(4-trifluoromethoxyphenyl)ureido]indan-5-ylsulfanyl}propionic acid]",–,"PPARδ FI ([4]; fold induction, PPARδ standard: FI = 36.1): 1.3"
183,11,CCCCCN(C(=O)Nc1ccc(-c2ccccc2)cc1)C1Cc2ccc(SC(C)(C)C(=O)O)cc2C1 (stereo not shown) [Example 12],–,–
131,–,"CCN(C(=O)Nc1ccc(OC(F)(F)F)cc1)C1CCc2cc(SC(C)(C)C(=O)O)c(OC(F)(F)F)cc2C1 (stereo not shown) [Example 54, 2-{6-[1-Ethyl-3-(4-trifluoromethoxyphenyl)ureido]-3-trifluoromethoxy-5,6,7,8-tetrahydronaphthalen-2-ylsulfanyl}-2-methylpropionic acid]",> 3000,–

Compound,EC50 [1] [nM],PPARγ FI [2],EC50 [4] [nM],also measured
"CCN(C(=O)Oc1ccc(C)cc1)C1CCc2cc(SC(C)(C)C(=O)O)c(Cl)cc2C1 (stereo not shown) [Example 58, 2-{3-Chloro-6-[(4-methyl-phenoxycarbonyl)-ethyl-amino]-5,6,7,8-tetrahydronaphthalen-2-ylsulfanyl}-2-methyl-propionic acid]",340,–,613,EC50 [2]: > 3000 nM
"CCN(C(=O)Oc1ccc(Cl)cc1)C1CCc2cc(SC(C)(C)C(=O)O)c(Cl)cc2C1 (stereo not shown) [Example 59, 2-{3-Chloro-6-[(4-chloro-phenoxycarbonyl)-ethyl-amino]-5,6,7,8-tetrahydronaphthalen-2-ylsulfanyl}-2-methyl-propionic acid]",390,–,655,EC50 [2]: 1110 nM
"CCN(C(=O)Oc1ccc(OC(F)(F)F)cc1)C1CCc2cc(SC(C)(C)C(=O)O)ccc2C1 (stereo not shown) [Example 60, 2-{6-[Ethyl-(4-trifluoromethoxy-phenoxycarbonyl)-amino]-5,6,7,8-tetrahydronaphthalen-2-ylsulfanyl}-2-methyl-propionic acid]",2,–,> 3000,EC50 [2]: > 3000 nM
